Where a name gives a salt, the structure may show the parent alone.
Assays:
TYRO3 = molecular target: T1, TYRO3 (Homo sapiens, UniProt Q06418); assay: TR-FRET kinase activity assay, TYRO3; assay type: biochemical; conditions: ATP at Km, 60 minutes
T1 sequence (Q06418 41-890): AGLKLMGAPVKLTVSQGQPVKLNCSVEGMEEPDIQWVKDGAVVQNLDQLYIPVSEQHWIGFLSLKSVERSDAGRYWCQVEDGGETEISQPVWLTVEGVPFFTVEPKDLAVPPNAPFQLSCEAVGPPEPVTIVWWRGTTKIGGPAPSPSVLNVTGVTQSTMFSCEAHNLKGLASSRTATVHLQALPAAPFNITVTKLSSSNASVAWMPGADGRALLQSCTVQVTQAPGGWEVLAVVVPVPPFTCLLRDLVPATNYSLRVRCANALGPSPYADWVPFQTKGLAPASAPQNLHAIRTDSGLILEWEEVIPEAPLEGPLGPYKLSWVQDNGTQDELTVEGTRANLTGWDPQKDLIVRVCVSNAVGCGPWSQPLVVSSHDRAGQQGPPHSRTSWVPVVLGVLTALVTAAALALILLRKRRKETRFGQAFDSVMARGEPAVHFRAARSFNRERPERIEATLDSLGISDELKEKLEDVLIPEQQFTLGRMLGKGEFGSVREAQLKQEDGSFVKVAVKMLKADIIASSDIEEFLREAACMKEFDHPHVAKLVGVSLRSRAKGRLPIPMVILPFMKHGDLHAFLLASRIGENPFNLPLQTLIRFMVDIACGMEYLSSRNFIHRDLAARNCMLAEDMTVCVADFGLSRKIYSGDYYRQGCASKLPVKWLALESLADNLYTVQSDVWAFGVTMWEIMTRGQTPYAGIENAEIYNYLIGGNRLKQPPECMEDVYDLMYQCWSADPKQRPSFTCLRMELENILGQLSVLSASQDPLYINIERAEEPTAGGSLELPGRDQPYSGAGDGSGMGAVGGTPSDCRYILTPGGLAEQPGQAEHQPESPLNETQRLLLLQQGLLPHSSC
Method in brief: (§1)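 IC50s come from loss of TR-FRET between a Eu-labeled phospho-site antibody and fluorescent tyrosine-phosphorylated peptide. Kinase reactions, initiated with Km ATP, ran 60 min at RT at pH 7.5 before EDTA quench.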

AXL = molecular target: T2, AXL (Homo sapiens, UniProt P30530); assay: TR-FRET kinase activity assay, AXL; assay type: biochemical; conditions: ATP at Km, 60 minutes
T2 sequence (P30530 26-894): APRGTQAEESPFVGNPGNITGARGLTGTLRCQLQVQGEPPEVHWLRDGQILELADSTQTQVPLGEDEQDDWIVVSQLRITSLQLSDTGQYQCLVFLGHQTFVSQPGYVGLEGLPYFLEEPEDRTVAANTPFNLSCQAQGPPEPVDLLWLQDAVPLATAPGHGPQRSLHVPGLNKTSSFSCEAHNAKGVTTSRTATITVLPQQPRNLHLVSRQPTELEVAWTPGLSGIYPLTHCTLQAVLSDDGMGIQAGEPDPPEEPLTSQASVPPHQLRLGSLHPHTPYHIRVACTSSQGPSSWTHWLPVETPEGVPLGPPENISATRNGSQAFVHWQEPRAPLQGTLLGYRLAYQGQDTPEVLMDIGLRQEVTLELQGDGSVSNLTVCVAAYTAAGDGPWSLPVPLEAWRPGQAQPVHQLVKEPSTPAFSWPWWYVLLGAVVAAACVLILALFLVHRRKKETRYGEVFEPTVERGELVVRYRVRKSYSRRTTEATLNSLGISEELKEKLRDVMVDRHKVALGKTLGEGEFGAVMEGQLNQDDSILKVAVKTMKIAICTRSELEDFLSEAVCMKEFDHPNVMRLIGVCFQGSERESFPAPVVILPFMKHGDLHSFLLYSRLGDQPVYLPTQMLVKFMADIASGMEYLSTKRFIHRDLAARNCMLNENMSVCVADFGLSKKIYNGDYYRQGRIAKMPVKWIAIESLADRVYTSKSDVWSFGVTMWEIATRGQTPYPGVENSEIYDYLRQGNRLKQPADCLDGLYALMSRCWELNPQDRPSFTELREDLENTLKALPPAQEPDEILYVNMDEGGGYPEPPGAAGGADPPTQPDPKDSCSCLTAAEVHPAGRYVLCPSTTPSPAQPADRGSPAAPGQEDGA
Method in brief: as §1

IC50 (TYRO3) [nM] | IC50 (AXL) [nM] | Structure (SMILES)
≤ 100 | 100 to 1000 | CCCCNc1ncc2c(NCc3ccc(F)cc3)ncc([C@H]3CC[C@H](O)CC3)c2n1 [Compound 103, 4-[2-(butylamino)-5-[(4-fluorophenyl)methylamino]pyrido[4,3-d]pyrimidin-8-yl]cyclohexanol hydrochloride]
≤ 100 | ≤ 100 | CCCCC[C@H](C)Nc1ncc2c(OC3CCNCC3)ncc([C@H]3CC[C@H](O)CC3)c2n1 [Compound 130]
≤ 100 | ≤ 100 | O[C@H]1CC[C@H](c2cnc(OC3CCOCC3)c3cnc(Nc4ccc(Cl)cc4)nc32)CC1 [Compound 134, (1r,4r)-4-(2-((4-chlorophenyl)amino)-5-((tetrahydro-2H-pyran-4-yl)oxy)pyrido[4,3-d]pyrimidin-8-yl)cyclohexan-1-ol]
≤ 100 | 1000 to 10000 | COC[C@@H](C)Nc1ncc2c(OC3CCOCC3)ncc([C@H]3CC[C@H](O)CC3)c2n1 [Compound 145]
≤ 100 | 100 to 1000 | CCCC(C)Nc1ncc2c(O[C@H]3CC[C@@H](O)CC3)ncc([C@H]3CC[C@H](O)CC3)c2n1 (stereo partly shown) [Compound 148]
≤ 100 | ≤ 100 | CCCC(C)Nc1ncc2c(NC3CCN(C)CC3)ncc([C@H]3CC[C@H](O)CC3)c2n1 (stereo partly shown) [Compound 154]
≤ 100 | 100 to 1000 | CCCC(C)Nc1ncc2c(N3CCC(NC)CC3)ncc([C@H]3CC[C@H](O)CC3)c2n1 (stereo partly shown) [Compound 155]
≤ 100 | ≤ 100 | CCCC(C)Nc1ncc2c(NC3CCNCC3)ncc([C@H]3CC[C@H](O)CC3)c2n1 (stereo partly shown) [Compound 158]
≤ 100 | 1000 to 10000 | CCCC(C)Nc1ncc2c(N3CC[C@H](N(C)C)C3)ncc([C@H]3CC[C@H](O)CC3)c2n1 (stereo partly shown) [Compound 159]
≤ 100 | 100 to 1000 | CCCC(C)Nc1ncc2c(OC[C@H]3CC[C@H](O)CC3)ncc([C@H]3CC[C@H](O)CC3)c2n1 (stereo partly shown) [Compound 160]
1000 to 10000 | 1000 to 10000 | CN1CCC(Nc2ncc3c(OC4CCNCC4)ncc([C@H]4CC[C@H](O)CC4)c3n2)C1=O (stereo partly shown) [Compound 162]
≤ 100 | 1000 to 10000 | Cc1nccn1CCNc1ncc2c(OC3CCNCC3)ncc([C@H]3CC[C@H](O)CC3)c2n1 [Compound 163]
100 to 1000 | 1000 to 10000 | O[C@H]1CC[C@H](c2cnc(OC3CCNCC3)c3cnc(NC4CCC(F)(F)CC4)nc32)CC1 [Compound 164]

More lines, now with the values behind:

Structure (SMILES) | IC50 (TYRO3) [nM] | IC50 (AXL) [nM]
CCCCNc1ncc2c(=O)n(-c3ccc(CN4CCOCC4)cc3)cc([C@H]3CC[C@H](O)CC3)c2n1 [Compound 101] | 100 to 1000 | 100 to 1000
CCCCNc1ncc2c(OC3CCOCC3)ncc([C@H]3CC[C@H](O)CC3)c2n1 [Compound 104, (1r,4r)-4-(2-(butylamino)-5-((tetrahydro-2H-pyran-4-yl)oxy)pyrido[4,3-d]pyrimidin-8-yl)cyclohexanol] | ≤ 100 | ≤ 100
CCCCNc1ncc2c(OC)ncc([C@H]3CC[C@H](O)CC3)c2n1 [Compound 127] | ≤ 100 | ≤ 100
CCCC(C)Nc1ncc2c(=O)n(C3CCN(C(C)=O)CC3)cc([C@H]3CC[C@H](O)CC3)c2n1 (stereo partly shown) [Compound 128, 6-(1-acetylpiperidin-4-yl)-8-((1r,4r)-4-hydroxycyclohexyl)-2-(pentan-2-ylamino)pyrido[4,3-d]pyrimidin-5(6H)-one hydrochloride] | ≤ 100 | 100 to 1000
CCCCNc1ncc2c(OC3CCNCC3)ncc([C@H]3CC[C@H](O)CC3)c2n1 [Compound 129] | ≤ 100 | ≤ 100
CCCCNc1ncc2c(OC3CCN(C)CC3)ncc([C@H]3CC[C@H](O)CC3)c2n1 [Compound 131] | ≤ 100 | ≤ 100
O[C@H]1CC[C@H](c2cnc(OC3CCOCC3)c3cnc(NC4CCCC4)nc32)CC1 [Compound 132] | ≤ 100 | ≤ 100
CCCC(C)Nc1ncc2c(OC3CCOCC3)ncc([C@H]3CC[C@H](O)CC3)c2n1 (stereo partly shown) [Compound 133] | ≤ 100 | 100 to 1000
CC(C)Nc1ncc2c(OC3CCNCC3)ncc([C@H]3CC[C@H](O)CC3)c2n1 [Compound 135] | ≤ 100 | ≤ 100
O[C@H]1CC[C@H](c2cnc(OC3CCNCC3)c3cnc(N[C@H]4CCOC4)nc32)CC1 [Compound 136] | ≤ 100 | 100 to 1000
C[C@@H](CO)Nc1ncc2c(OC3CCOCC3)ncc([C@H]3CC[C@H](O)CC3)c2n1 [Compound 137] | 100 to 1000 | 1000 to 10000
CCCC(C)Nc1ncc2c(=O)n(C3CCN(S(C)(=O)=O)CC3)cc([C@H]3CC[C@@H](O)CC3)c2n1 (stereo partly shown) [Compound 138] | ≤ 100 | 100 to 1000
CCCC(C)Nc1ncc2c(O[C@H]3CC[C@H](O)CC3)ncc([C@H]3CC[C@H](O)CC3)c2n1 (stereo partly shown) [Compound 139] | ≤ 100 | 100 to 1000
CCC(C)Nc1ncc2c(OC3CCOCC3)ncc([C@H]3CC[C@H](O)CC3)c2n1 (stereo partly shown) [Compound 140] | ≤ 100 | 100 to 1000
CCCC(C)Nc1ncc2c(OC3CCS(=O)(=O)CC3)ncc([C@H]3CC[C@H](O)CC3)c2n1 (stereo partly shown) [Compound 141] | ≤ 100 | 100 to 1000
CCCC(C)Nc1ncc2c(OC3CCS(=O)(=O)CC3)ncc([C@H]3CC[C@@H](O)CC3)c2n1 (stereo partly shown) [Compound 142] | 100 to 1000 | 1000 to 10000
CCCC(C)Nc1ncc2c(OC3CCN(S(C)(=O)=O)CC3)ncc([C@H]3CC[C@H](O)CC3)c2n1 (stereo partly shown) [Compound 143] | ≤ 100 | 100 to 1000
CC1(C)CC(Nc2ncc3c(OC4CCOCC4)ncc([C@H]4CC[C@H](O)CC4)c3n2)C1 [Compound 144] | 100 to 1000 | 100 to 1000
CCCC(C)Nc1ncc2c(N(C)C3CCN(C)CC3)ncc([C@H]3CC[C@H](O)CC3)c2n1 (stereo partly shown) [Compound 146] | ≤ 100 | 1000 to 10000
CCCC(C)Nc1ncc2c(OC3CCC(OC)CC3)ncc([C@H]3CC[C@H](O)CC3)c2n1 (stereo partly shown) [Compound 147] | ≤ 100 | 100 to 1000
CCCC(C)Nc1ncc2c(=O)n(C3CCN(CC(=O)N(C)C)CC3)cc([C@H]3CC[C@@H](O)CC3)c2n1 (stereo partly shown) [Compound 149] | ≤ 100 | 100 to 1000
CCCC(C)Nc1ncc2c(=O)n(C3CCN(CCOC)CC3)cc([C@H]3CC[C@H](O)CC3)c2n1 (stereo partly shown) [Compound 150] | ≤ 100 | 100 to 1000
CCCC(C)Nc1ncc2c(=O)n(C3CCN(CCC(=O)N(C)C)CC3)cc([C@H]3CC[C@H](O)CC3)c2n1 (stereo partly shown) [Compound 151] | ≤ 100 | 100 to 1000
CCC[C@@H](C)Nc1ncc2c(=O)n(C3CCNCC3)cc([C@H]3CC[C@H](O)CC3)c2n1 [Compound 152] | ≤ 100 | 1000 to 10000
CCCC(C)Nc1ncc2c(OC3CCC(F)(F)CC3)ncc([C@H]3CC[C@H](O)CC3)c2n1 (stereo partly shown) [Compound 153] | 100 to 1000 | 1000 to 10000
CCCC(C)Nc1ncc2c(N3CC[C@@H](N(C)C)C3)ncc([C@H]3CC[C@H](O)CC3)c2n1 (stereo partly shown) [Compound 156] | ≤ 100 | 100 to 1000
CCCC(C)Nc1ncc2c(OC[C@H]3CC[C@@H](O)CC3)ncc([C@H]3CC[C@H](O)CC3)c2n1 (stereo partly shown) [Compound 157] | ≤ 100 | 100 to 1000
CCCC(C)Nc1ncc2c(OC3CC(C)(C)N(C)C(C)(C)C3)ncc([C@H]3CC[C@H](O)CC3)c2n1 (stereo partly shown) [Compound 161] | ≤ 100 | ≤ 100

Source: US20200291018A1, “TAM KINASE INHIBITORS” (SYROS PHARMACEUTICALS, INC., priority 2017, published 2020)
